Experimental data taken from patent US4034102A, “4-Substituted-1,3-dithiolan-2-ylidene malonates and pharmaceutical compositions containing the same” (Nihon Nohyaku Co. Ltd., priority 1975, dated 1977).

Tests used:
[1] = test system: CCl4-induced liver damage; experiment: Protection against CCl4-induced Hepatotoxicity; format: in vivo, mice (four-week-old male, dd strain); details: 6 h before CCl4 (0.05 ml/kg oral), 24 h after CCl4, average of 5 to 6 mice; for Liver damage index: 250 mg/kg oral in olive oil, score 0 normal, 2 slightly recognized, 4 clearly observable damage, 6 heavy damage, CCl4 alone 5.2, control 0; for p-GPT (plasma glutamic-pyruvic transaminase activity): 250 mg/kg oral, values over 1,000 regarded as 1,000, CCl4 alone >1000, control 35
From the text: Carbon tetrachloride (CCl4) administration induces centrilobular necrosis of the liver associated with loss of diphosphopyridine nucleotide, hepatic glycogen, coenzyme A and increase in neutral fat. Release of several enzymes from the hepatocytes, and increase of enzyme activities in the plasma are recognized as the result of the damage of the liver. A suitable means for evaluating the degree of damage induced by CCl4 or the degree of protection afforded by drugs is to study the plasma glutamic-pyruvic transaminase (p-GPT) activity.
Methods: The test compounds were dissolved or suspended in olive oil and administered orally at the dose of 250 mg/kg to the mice (Four-week-old male mice-dd strain). After 6 hours, CCl4 was administered orally (0.05 ml/kg as olive oil solution). Animals were killed 24 hours after CCl4 administration, and the liver was grossly observed. The plasma was obtained by centrifugation. Activities of p-GPT were determined by the method of Reitman and Frankels and expressed in Karmen units. Score for liver damage index was as follows:
Each figure indicates average of 5 to 6 mice. Values of p-GPT over 1,000 Karmen unit regarded as 1,000 for calculation of average for convenience.

in vivo = details: mouse, oral, male mice, read-out: acute oral toxicity LD50
Method: For example, the LD50 value of the compound 12 is more than 3,000 mg/kg. Further, these compounds have no detrimental effects on test animals administered therewith, so far as the doses thereof are within an ordinary administration range.

COc1ccc(-c2cc(=S)ss2)cc1 [Anethol trithion, reference compound]
Liver damage index [1]: 1.6
p-GPT (plasma glutamic-pyruvic transaminase activity) [1]: 58 Karmen units

CCOC(=O)C(C(=O)OCC)=C1SCC(OC(=O)CCl)S1 (stereo not shown) [Compound 1]
Liver damage index [1]: 1.0
p-GPT (plasma glutamic-pyruvic transaminase activity) [1]: 102 Karmen units

CCOC(=O)C(C(=O)OCC)=C1SCC(OC(=O)CCC(=O)O)S1 (stereo not shown) [Compound 2, Succinic acid semi-ester of diethyl 4-hydroxy-1,3-dithiolan-2-ylidene malonate]
Liver damage index [1]: 0.6
p-GPT (plasma glutamic-pyruvic transaminase activity) [1]: 43 Karmen units

CCOC(=O)C(C(=O)OCC)=C1SCC(OC(=O)CCCC(=O)O)S1 (stereo not shown) [Compound 3]
Liver damage index [1]: 1.2
p-GPT (plasma glutamic-pyruvic transaminase activity) [1]: 108 Karmen units

CCOC(=O)C(C(=O)OCC)=C1SCC(OC(=O)CCC(=O)O)S1 (stereo not shown) [Compound 4]
Liver damage index [1]: 0.2
p-GPT (plasma glutamic-pyruvic transaminase activity) [1]: 45 Karmen units

CCOC(=O)C(C(=O)OCC)=C1SCC(OC(=O)CN(CC)CC)S1 (stereo not shown) [Compound 5, Diethyl 4-diethylaminoacetoxy-1,3-dithiolan-2-ylidene malonate]
Liver damage index [1]: 1.6
p-GPT (plasma glutamic-pyruvic transaminase activity) [1]: 232 Karmen units

CCCN(CCC)CC(=O)OC1CSC(=C(C(=O)OCC)C(=O)OCC)S1 (stereo not shown) [Compound 6]
Liver damage index [1]: 1.6
p-GPT (plasma glutamic-pyruvic transaminase activity) [1]: 250 Karmen units

CCOC(=O)C(C(=O)OCC)=C1SCC(OC(=O)C2=C(C(=O)O)CCCC2)S1 (stereo not shown) [Compound 7]
Liver damage index [1]: 2.2
p-GPT (plasma glutamic-pyruvic transaminase activity) [1]: 382 Karmen units

CCCOC(=O)C(C(=O)OCCC)=C1SCC(OC(=O)CCC(=O)O)S1 (stereo not shown) [Compound 8, Succinic acid semi-ester of di-n-propyl 4-hydroxy-1,3-dithiolan-2-ylidene malonate]
Liver damage index [1]: 0.6
p-GPT (plasma glutamic-pyruvic transaminase activity) [1]: 77 Karmen units

CC(C)OC(=O)C(C(=O)OC(C)C)=C1SCC(OC(=O)CCl)S1 (stereo not shown) [Compound 9, diisopropyl 4-chloroacetoxy-1,3-dithiolan-2-ylidene malonate]
Liver damage index [1]: 0.6
p-GPT (plasma glutamic-pyruvic transaminase activity) [1]: 65 Karmen units

CC(C)OC(=O)C(C(=O)OC(C)C)=C1SCC(OC(=O)c2ccccc2)S1 (stereo not shown) [Compound 10]
Liver damage index [1]: 1.7
p-GPT (plasma glutamic-pyruvic transaminase activity) [1]: 520 Karmen units

CC(C)OC(=O)C(C(=O)OC(C)C)=C1SCC(OC(=O)CCC(=O)O)S1 (stereo not shown) [Compound 11, succinic acid semi-ester of diisopropyl 4-hydroxy-1,3-dithiolan-2-ylidene malonate]
Liver damage index [1]: 0.2
p-GPT (plasma glutamic-pyruvic transaminase activity) [1]: 54 Karmen units

CC(C)OC(=O)C(C(=O)OC(C)C)=C1SCC(OC(=O)CCC(=O)O)S1 (stereo not shown) [Compound 12]
Liver damage index [1]: 0.2
p-GPT (plasma glutamic-pyruvic transaminase activity) [1]: 33 Karmen units
LD50 (in vivo): > 3000 mg/kg

CC(C)OC(=O)C(C(=O)OC(C)C)=C1SCC(OC(=O)CCC(=O)O)S1 (stereo not shown) [Compound 13]
Liver damage index [1]: 0.6
p-GPT (plasma glutamic-pyruvic transaminase activity) [1]: 44 Karmen units

CC(C)OC(=O)C(C(=O)OC(C)C)=C1SCC(OC(=O)CCCC(=O)O)S1 (stereo not shown) [Compound 14]
Liver damage index [1]: 0.6
p-GPT (plasma glutamic-pyruvic transaminase activity) [1]: 102 Karmen units

CC(C)OC(=O)C(C(=O)OC(C)C)=C1SCC(OC(=O)/C=C\C(=O)O)S1 (stereo not shown) [Compound 15]
Liver damage index [1]: 0.4
p-GPT (plasma glutamic-pyruvic transaminase activity) [1]: 62 Karmen units

CC(C)OC(=O)C(C(=O)OC(C)C)=C1SCC(OC(=O)c2ccccc2C(=O)O)S1 (stereo not shown) [Compound 16, phthalic acid semi-ester of diisopropyl 4-hydroxy-1,3-dithiolan-2-ylidene malonate]
Liver damage index [1]: 3.2
p-GPT (plasma glutamic-pyruvic transaminase activity) [1]: 482 Karmen units

CC(C)OC(=O)C(C(=O)OC(C)C)=C1SCC(OC(=O)C2=C(C(=O)O)CCCC2)S1 (stereo not shown) [Compound 17]
Liver damage index [1]: 1.8
p-GPT (plasma glutamic-pyruvic transaminase activity) [1]: 286 Karmen units

CC(C)OC(=O)C(C(=O)OC(C)C)=C1SCC(OC(=O)C2CC=CCC2C(=O)O)S1 (stereo not shown) [Compound 18]
Liver damage index [1]: 2.6
p-GPT (plasma glutamic-pyruvic transaminase activity) [1]: 565 Karmen units

CCN(CC)CC(=O)OC1CSC(=C(C(=O)OC(C)C)C(=O)OC(C)C)S1 (stereo not shown) [Compound 19, diisopropyl 4-diethylaminoacetoxy-1,3-dithiolan-2-ylidene malonate]
Liver damage index [1]: 1.2
p-GPT (plasma glutamic-pyruvic transaminase activity) [1]: 288 Karmen units

CC(C)OC(=O)C(C(=O)OC(C)C)=C1SCC(OC(=O)CN2CCOCC2)S1 (stereo not shown) [Compound 21]
Liver damage index [1]: 1.4
p-GPT (plasma glutamic-pyruvic transaminase activity) [1]: 380 Karmen units

CCCCOC(=O)C(C(=O)OCCCC)=C1SCC(OC(=O)CN2CCOCC2)S1 (stereo not shown) [Compound 22]
Liver damage index [1]: 0.8
p-GPT (plasma glutamic-pyruvic transaminase activity) [1]: 134 Karmen units

CCOC(=O)C(C(=O)OCC)=C1SCC(OC(=O)CN2CCOCC2)S1 (stereo not shown) [Compound 23]
Liver damage index [1]: 0.8
p-GPT (plasma glutamic-pyruvic transaminase activity) [1]: 122 Karmen units

NC(=O)CCCCC1CCSS1 (stereo not shown) [Thioctic acid amide, reference compound]
Liver damage index [1]: 4.8
p-GPT (plasma glutamic-pyruvic transaminase activity) [1]: 763 Karmen units
